Experimental data reported in the NIST ThermoML archive (doi:10.1016/j.jct.2014.08.005).
± gives the expanded uncertainty stated by the source.

Experiments:
[1] = Liquid, Vibrating tube method
[2] = wn = mass fraction of the nth substance listed; details: 101 kPa, Liquid, Vibrating tube method

Work on CC(O)COC(C)COC(C)CO (configuration not stated) [2-[2-(2-hydroxypropoxy)propoxy]-1-propanol] yielded a mass density ([1]; 293.15 K, 101 kPa) of 1017.5 ± 1 kg/m3, a mass density ([1]; 303.15 K, 101 kPa) of 1009.5 ± 1 kg/m3 and a mass density ([1]; 313.15 K, 101 kPa) of 1001.5 ± 1 kg/m3. The mass density ([1]; 323.15 K, 101 kPa) was 993.4 ± 1 kg/m3, the mass density ([1]; 333.15 K, 101 kPa) was 985.2 ± 1 kg/m3 and the mass density ([1]; 343.15 K, 101 kPa) was 976.9 ± 1 kg/m3.
Compound OCCOCCOCCO [triethylene glycol] has a mass density ([1]; 293.15 K, 101.33 kPa) of 1124.7 ± 1 kg/m3, a mass density ([1]; 303.15 K, 101.33 kPa) of 1117 ± 1 kg/m3 and a mass density ([1]; 313.15 K, 101.33 kPa) of 1109.2 ± 1 kg/m3. The mass density ([1]; 323.15 K, 101.33 kPa) was 1101.5 ± 1 kg/m3, the mass density ([1]; 333.15 K, 101.33 kPa) was 1093.7 ± 1 kg/m3 and the mass density ([1]; 343.15 K, 101.33 kPa) was 1085.9 ± 1 kg/m3.
With CC(O)COC(C)COC(C)CO (configuration not stated) [2-[2-(2-hydroxypropoxy)propoxy]-1-propanol] + O the mass density ([2]; 293.15 K, w1 = 0.2) was 1019.4 ± 1 kg/m3, the mass density ([2]; 293.15 K, w1 = 0.4) was 1037.1 ± 1 kg/m3 and the mass density ([2]; 293.15 K, w1 = 0.6) was 1041.1 ± 1 kg/m3. The mass density ([2]; 293.15 K, w1 = 0.8) was 1030.7 ± 1 kg/m3, the mass density ([2]; 293.15 K, w1 = 1) was 1017.5 ± 1 kg/m3 and the mass density ([2]; 303.15 K, w1 = 0.2) was 1015.2 ± 1 kg/m3. It also gave a mass density ([2]; 303.15 K, w1 = 0.4) of 1030.1 ± 1 kg/m3, a mass density ([2]; 303.15 K, w1 = 0.6) of 1033.2 ± 1 kg/m3 and a mass density ([2]; 303.15 K, w1 = 0.8) of 1023.1 ± 1 kg/m3. It also gave a mass density ([2]; 303.15 K, w1 = 1) of 1009.5 ± 1 kg/m3, a mass density ([2]; 313.15 K, w1 = 0.2) of 1010.2 ± 1 kg/m3 and a mass density ([2]; 313.15 K, w1 = 0.4) of 1022.9 ± 1 kg/m3. The mass density ([2]; 313.15 K, w1 = 0.6) was 1025.2 ± 1 kg/m3, the mass density ([2]; 313.15 K, w1 = 0.8) was 1015.4 ± 1 kg/m3 and the mass density ([2]; 313.15 K, w1 = 1) was 1001.5 ± 1 kg/m3. It also gave a mass density ([2]; 323.15 K, w1 = 0.2) of 1004.5 ± 1 kg/m3, a mass density ([2]; 323.15 K, w1 = 0.4) of 1015.5 ± 1 kg/m3 and a mass density ([2]; 323.15 K, w1 = 0.6) of 1017.2 ± 1 kg/m3. The mass density ([2]; 323.15 K, w1 = 0.8) was 1007.6 ± 1 kg/m3, the mass density ([2]; 323.15 K, w1 = 1) was 993.4 ± 1 kg/m3 and the mass density ([2]; 333.15 K, w1 = 0.2) was 998.4 ± 1 kg/m3. It also gave a mass density ([2]; 333.15 K, w1 = 0.4) of 1007.7 ± 1 kg/m3, a mass density ([2]; 333.15 K, w1 = 0.6) of 1008.7 ± 1 kg/m3 and a mass density ([2]; 333.15 K, w1 = 0.8) of 999.5 ± 1 kg/m3. The mass density ([2]; 333.15 K, w1 = 1) was 985.2 ± 1 kg/m3, the mass density ([2]; 343.15 K, w1 = 0.2) was 991.6 ± 1 kg/m3 and the mass density ([2]; 343.15 K, w1 = 0.4) was 999.6 ± 1 kg/m3. The mass density ([2]; 343.15 K, w1 = 0.6) was 1000.2 ± 1 kg/m3, the mass density ([2]; 343.15 K, w1 = 0.8) was 990.9 ± 1 kg/m3 and the mass density ([2]; 343.15 K, w1 = 1) was 976.9 ± 1 kg/m3.
